The supplement of paper PMC10307832

What was measured:
Test in all cases: relative viability (nuclei count vs DMSO), 5 days (fraction); higher = more cells survive
[1] = compound: NCC(=O)Nc1ccc(-n2nc(C(F)(F)F)cc2-c2ccc3c(ccc4ccccc43)c2)cc1 + COc1cc2c(Oc3ccc(NC(=O)C4(C(=O)Nc5ccc(F)cc5)CC4)cc3F)ccnc2cc1OCCCN1CCOCC1 [Foretinib] (partner 0.25 µM)
Method in brief: (§1)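 Lung cancer cell lines were seeded in 1536-well plates and dosed by pin tool the next day, with either a single drug or a fixed anchor-drug dose combined with five library-drug doses (not always all listed) spaced in √10 steps. Five days later, one step fixed the cells and stained their nuclei (final 0.05% Triton X-100, 1% formaldehyde, 1 ug/ml Hoechst), and nuclei were counted on 4× images. Relative viability is the nuclei count in treated wells divided by the count in vehicle wells, and each value is the median of duplicate plates.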

[2] = compound: C1CSC2=C(C(=O)N1)SC3=C2C=C(C=C3)O [kb NB 142-70] + Nc1nc2[nH]cc(CCc3ccc(C(=O)N[C@@H](CCC(=O)O)C(=O)O)cc3)c2c(=O)[nH]1 [Pemetrexed] (partner 0.2 µM)
Method in brief: as §1

[3] = compound: NCC(=O)Nc1ccc(-n2nc(C(F)(F)F)cc2-c2ccc3c(ccc4ccccc43)c2)cc1 + Nc1nc2[nH]cc(CCc3ccc(C(=O)N[C@@H](CCC(=O)O)C(=O)O)cc3)c2c(=O)[nH]1 [Pemetrexed] (partner 0.2 µM)
Method in brief: as §1

[4] = compound: NCC(=O)Nc1ccc(-n2nc(C(F)(F)F)cc2-c2ccc3c(ccc4ccccc43)c2)cc1 + Cc1cc(Nc2cc(N3CCN(C)CC3)nc(Sc3ccc(NC(=O)C4CC4)cc3)n2)n[nH]1 [Tozasertib] (partner 0.1 µM)
Method in brief: as §1

NCI-H2342
relative viability ([1]; first compound 0.02 µM): 1.05 | relative viability ([1]; first compound 0.06325 µM): 1.16 | relative viability ([1]; first compound 0.2 µM): 1.18 | relative viability ([1]; first compound 0.6325 µM): 0.97 | relative viability ([1]; first compound 2 µM): 1.24 | relative viability ([2]; first compound 0.1 µM): 0.781 | relative viability ([2]; first compound 1 µM): 0.774 | relative viability ([2]; first compound 3.162 µM): 0.697 | relative viability ([3]; first compound 0.02 µM): 0.796 | relative viability ([3]; first compound 0.06325 µM): 0.757 | relative viability ([3]; first compound 0.2 µM): 0.764 | relative viability ([3]; first compound 0.6325 µM): 0.762 | relative viability ([3]; first compound 2 µM): 0.812 | relative viability ([4]; first compound 0.02 µM): 0.652 | relative viability ([4]; first compound 0.06325 µM): 0.676 | relative viability ([4]; first compound 0.2 µM): 0.45 | relative viability ([4]; first compound 0.6325 µM): 0.448 | relative viability ([4]; first compound 2 µM): 0.492

HCC-15
relative viability ([1]; first compound 0.02 µM): 1.07 | relative viability ([1]; first compound 0.06325 µM): 1.04 | relative viability ([1]; first compound 0.2 µM): 1.08 | relative viability ([1]; first compound 0.6325 µM): 1.1 | relative viability ([1]; first compound 2 µM): 1.07 | relative viability ([2]; first compound 0.1 µM): 0.227 | relative viability ([2]; first compound 1 µM): 0.238 | relative viability ([2]; first compound 3.162 µM): 0.227 | relative viability ([3]; first compound 0.02 µM): 0.209 | relative viability ([3]; first compound 0.06325 µM): 0.209 | relative viability ([3]; first compound 0.2 µM): 0.212 | relative viability ([3]; first compound 0.6325 µM): 0.217 | relative viability ([3]; first compound 2 µM): 0.229 | relative viability ([4]; first compound 0.02 µM): 0.379 | relative viability ([4]; first compound 0.06325 µM): 0.416 | relative viability ([4]; first compound 0.2 µM): 0.39 | relative viability ([4]; first compound 0.6325 µM): 0.489 | relative viability ([4]; first compound 2 µM): 0.347

A-427
relative viability ([1]; first compound 0.06325 µM): 1.2 | relative viability ([1]; first compound 0.2 µM): 1.1 | relative viability ([1]; first compound 0.6325 µM): 1.11 | relative viability ([1]; first compound 2 µM): 0.959 | relative viability ([2]; first compound 0.1 µM): 0.886 | relative viability ([2]; first compound 1 µM): 1.01 | relative viability ([2]; first compound 3.162 µM): 0.873 | relative viability ([3]; first compound 0.02 µM): 1 | relative viability ([3]; first compound 0.06325 µM): 0.975 | relative viability ([3]; first compound 0.2 µM): 1.02 | relative viability ([3]; first compound 0.6325 µM): 0.974 | relative viability ([3]; first compound 2 µM): 0.957 | relative viability ([4]; first compound 0.06325 µM): 0.213 | relative viability ([4]; first compound 0.2 µM): 0.191 | relative viability ([4]; first compound 0.6325 µM): 0.208 | relative viability ([4]; first compound 2 µM): 0.205

NCI-H2228
relative viability ([1]; first compound 0.02 µM): 1.05 | relative viability ([1]; first compound 0.06325 µM): 0.974 | relative viability ([1]; first compound 0.2 µM): 0.889 | relative viability ([1]; first compound 0.6325 µM): 0.97 | relative viability ([1]; first compound 2 µM): 0.972 | relative viability ([2]; first compound 0.1 µM): 0.375 | relative viability ([2]; first compound 1 µM): 0.376 | relative viability ([2]; first compound 3.162 µM): 0.24 | relative viability ([3]; first compound 0.02 µM): 0.375 | relative viability ([3]; first compound 0.06325 µM): 0.354 | relative viability ([3]; first compound 0.2 µM): 0.377 | relative viability ([3]; first compound 0.6325 µM): 0.358 | relative viability ([3]; first compound 2 µM): 0.398 | relative viability ([4]; first compound 0.02 µM): 0.217 | relative viability ([4]; first compound 0.06325 µM): 0.265 | relative viability ([4]; first compound 0.2 µM): 0.308 | relative viability ([4]; first compound 0.6325 µM): 0.27 | relative viability ([4]; first compound 2 µM): 0.229

NCI-H1734
relative viability ([1]; first compound 0.02 µM): 0.795 | relative viability ([1]; first compound 0.06325 µM): 0.875 | relative viability ([1]; first compound 0.2 µM): 0.919 | relative viability ([1]; first compound 0.6325 µM): 0.766 | relative viability ([1]; first compound 2 µM): 0.9 | relative viability ([2]; first compound 0.1 µM): 0.395 | relative viability ([2]; first compound 1 µM): 0.369 | relative viability ([2]; first compound 3.162 µM): 0.376 | relative viability ([3]; first compound 0.02 µM): 0.406 | relative viability ([3]; first compound 0.06325 µM): 0.457 | relative viability ([3]; first compound 0.2 µM): 0.442 | relative viability ([3]; first compound 0.6325 µM): 0.442 | relative viability ([3]; first compound 2 µM): 0.384 | relative viability ([4]; first compound 0.02 µM): 0.28 | relative viability ([4]; first compound 0.06325 µM): 0.271 | relative viability ([4]; first compound 0.2 µM): 0.276 | relative viability ([4]; first compound 0.6325 µM): 0.286 | relative viability ([4]; first compound 2 µM): 0.254

PC-14
relative viability ([1]; first compound 0.02 µM): 1.03 | relative viability ([1]; first compound 0.06325 µM): 1.09 | relative viability ([1]; first compound 0.2 µM): 0.942 | relative viability ([1]; first compound 0.6325 µM): 0.98 | relative viability ([1]; first compound 2 µM): 0.944 | relative viability ([2]; first compound 0.1 µM): 0.134 | relative viability ([2]; first compound 1 µM): 0.148 | relative viability ([2]; first compound 3.162 µM): 0.139 | relative viability ([3]; first compound 0.02 µM): 0.131 | relative viability ([3]; first compound 0.06325 µM): 0.136 | relative viability ([3]; first compound 0.6325 µM): 0.131 | relative viability ([3]; first compound 2 µM): 0.113 | relative viability ([4]; first compound 0.02 µM): 0.634 | relative viability ([4]; first compound 0.06325 µM): 0.606 | relative viability ([4]; first compound 0.2 µM): 0.543 | relative viability ([4]; first compound 0.6325 µM): 0.517 | relative viability ([4]; first compound 2 µM): 0.651

NCI-H1915
relative viability ([1]; first compound 0.02 µM): 1.12 | relative viability ([1]; first compound 0.06325 µM): 1.12 | relative viability ([1]; first compound 0.2 µM): 1.09 | relative viability ([1]; first compound 0.6325 µM): 1.06 | relative viability ([1]; first compound 2 µM): 1.11 | relative viability ([2]; first compound 0.1 µM): 0.462 | relative viability ([2]; first compound 1 µM): 0.532 | relative viability ([2]; first compound 3.162 µM): 0.474 | relative viability ([3]; first compound 0.02 µM): 0.452 | relative viability ([3]; first compound 0.06325 µM): 0.503 | relative viability ([3]; first compound 0.2 µM): 0.477 | relative viability ([3]; first compound 0.6325 µM): 0.575 | relative viability ([3]; first compound 2 µM): 0.467 | relative viability ([4]; first compound 0.02 µM): 0.378 | relative viability ([4]; first compound 0.06325 µM): 0.465 | relative viability ([4]; first compound 0.2 µM): 0.426 | relative viability ([4]; first compound 0.6325 µM): 0.418 | relative viability ([4]; first compound 2 µM): 0.407

NCI-H1666
relative viability ([1]; first compound 0.02 µM): 0.975 | relative viability ([1]; first compound 0.06325 µM): 1.01 | relative viability ([1]; first compound 0.2 µM): 0.998 | relative viability ([1]; first compound 0.6325 µM): 0.963 | relative viability ([1]; first compound 2 µM): 0.932 | relative viability ([2]; first compound 0.1 µM): 0.811 | relative viability ([2]; first compound 1 µM): 0.977 | relative viability ([2]; first compound 3.162 µM): 0.897 | relative viability ([3]; first compound 0.02 µM): 0.947 | relative viability ([3]; first compound 0.06325 µM): 0.881 | relative viability ([3]; first compound 0.2 µM): 0.87 | relative viability ([3]; first compound 0.6325 µM): 0.851 | relative viability ([3]; first compound 2 µM): 0.878 | relative viability ([4]; first compound 0.02 µM): 0.579 | relative viability ([4]; first compound 0.06325 µM): 0.63 | relative viability ([4]; first compound 0.2 µM): 0.578 | relative viability ([4]; first compound 0.6325 µM): 0.584 | relative viability ([4]; first compound 2 µM): 0.572

HCC-366
relative viability ([1]; first compound 0.02 µM): 0.918 | relative viability ([1]; first compound 0.06325 µM): 0.911 | relative viability ([1]; first compound 0.2 µM): 0.984 | relative viability ([1]; first compound 0.6325 µM): 0.924 | relative viability ([1]; first compound 2 µM): 0.992 | relative viability ([2]; first compound 0.1 µM): 0.182 | relative viability ([2]; first compound 1 µM): 0.214 | relative viability ([2]; first compound 3.162 µM): 0.34 | relative viability ([3]; first compound 0.02 µM): 0.173 | relative viability ([3]; first compound 0.06325 µM): 0.149 | relative viability ([3]; first compound 0.2 µM): 0.183 | relative viability ([3]; first compound 0.6325 µM): 0.162 | relative viability ([3]; first compound 2 µM): 0.282 | relative viability ([4]; first compound 0.02 µM): 0.42 | relative viability ([4]; first compound 0.06325 µM): 0.18 | relative viability ([4]; first compound 0.2 µM): 0.118 | relative viability ([4]; first compound 0.6325 µM): 0.15 | relative viability ([4]; first compound 2 µM): 0.0801
